Measured values taken from paper PMC7385619, “A triple action CDK4/6-PI3K-BET inhibitor with augmented cancer cell cytotoxicity” (Cell Discovery, 2020).
Read-outs that look alike come from different tables or passages of the source.

Columns and labels:
Assay in all cases: KINOMEscan assay (Eurofins DiscoverX)
Assay type in all cases: binding
kinome (kinase panel) [1] = target: T1, kinome (kinase panel) (Homo sapiens, UniProt P45984); details: JNK2 (Entrez MAPK9); 1000 nM; read-out: Percent Control
T1 construct: purchased Eurofins DiscoverX

kinome (kinase panel) [2] = target: T2, kinome (kinase panel) (Homo sapiens, UniProt Q8TBX8); details: PIP5K2C (Entrez PIP4K2C); 1000 nM; read-out: Percent Control
T2 construct: purchased Eurofins DiscoverX

kinome (kinase panel) [3] = target: T3, kinome (kinase panel) (Homo sapiens, UniProt Q08881); details: ITK; 1000 nM; read-out: Percent Control
T3 construct: purchased Eurofins DiscoverX

kinome (kinase panel) [4] = target: T4, kinome (kinase panel) (Homo sapiens, UniProt P46734); details: MEK3 (Entrez MAP2K3); 1000 nM; read-out: Percent Control
T4 construct: purchased Eurofins DiscoverX

kinome (kinase panel) [5] = target: T5, kinome (kinase panel) (Homo sapiens, UniProt Q16620); details: TRKB (NTRK2); 1000 nM; read-out: Percent Control
T5 construct: purchased Eurofins DiscoverX

kinome (kinase panel) [6] = target: T6, kinome (kinase panel) (Homo sapiens, UniProt Q00537); details: PCTK2 (Entrez CDK17); 1000 nM; read-out: Percent Control
T6 construct: purchased Eurofins DiscoverX

kinome (kinase panel) [7] = target: T7, kinome (kinase panel) (Homo sapiens, UniProt P00533, T790M); details: […]; 1000 nM; read-out: Percent Control
T7 construct: purchased Eurofins DiscoverX

kinome (kinase panel) [8] = target: T8, kinome (kinase panel) (Homo sapiens, UniProt P78356); details: PIP5K2B (Entrez PIP4K2B); 1000 nM; read-out: Percent Control
T8 construct: purchased Eurofins DiscoverX

kinome (kinase panel) [9] = target: T9, kinome (kinase panel) (Homo sapiens, UniProt Q14680); details: MELK; 1000 nM; read-out: Percent Control
T9 construct: purchased Eurofins DiscoverX

kinome (kinase panel) [10] = target: T10, kinome (kinase panel) (Homo sapiens, UniProt P31751); details: AKT2; 1000 nM; read-out: Percent Control
T10 construct: purchased Eurofins DiscoverX

kinome (kinase panel) [11] = target: T11, kinome (kinase panel) (Homo sapiens, UniProt Q16512); details: PKN1; 1000 nM; read-out: Percent Control
T11 construct: purchased Eurofins DiscoverX

kinome (kinase panel) [12] = target: T12, kinome (kinase panel) (Homo sapiens, UniProt P07949, M918T); details: read-out: Percent Control
T12 construct: purchased Eurofins DiscoverX

kinome (kinase panel) [13] = target: T13, kinome (kinase panel) (Homo sapiens, UniProt Q9BQI3); details: EIF2AK1; 1000 nM; read-out: Percent Control
T13 construct: purchased Eurofins DiscoverX

kinome (kinase panel) [14] = target: T14, kinome (kinase panel) (Homo sapiens, UniProt P42684); details: ABL2; 1000 nM; read-out: Percent Control
T14 construct: purchased Eurofins DiscoverX

kinome (kinase panel) [15] = target: T15, kinome (kinase panel) (Homo sapiens, UniProt Q13237); details: PRKG2; 1000 nM; read-out: Percent Control
T15 construct: purchased Eurofins DiscoverX

kinome (kinase panel) [16] = target: T16, kinome (kinase panel) (Homo sapiens, UniProt P08581); details: MET; 1000 nM; read-out: Percent Control
T16 construct: purchased Eurofins DiscoverX

kinome (kinase panel) [17] = target: T17, kinome (kinase panel) (Homo sapiens, UniProt Q96J92); details: WNK4; 1000 nM; read-out: Percent Control
T17 construct: purchased Eurofins DiscoverX

kinome (kinase panel) [18] = target: T18, kinome (kinase panel) (Homo sapiens, UniProt Q13464); details: ROCK1; 1000 nM; read-out: Percent Control
T18 construct: purchased Eurofins DiscoverX

kinome (kinase panel) [19] = target: T19, kinome (kinase panel) (Homo sapiens, UniProt P54762); details: EPHB1; 1000 nM; read-out: Percent Control
T19 construct: purchased Eurofins DiscoverX

kinome (kinase panel) [20] = target: T20, kinome (kinase panel) (Homo sapiens, UniProt P53350); details: PLK1; 1000 nM; read-out: Percent Control
T20 construct: purchased Eurofins DiscoverX

kinome (kinase panel) [21] = target: T21, kinome (kinase panel) (Homo sapiens, UniProt Q8WU08); details: YANK1 (STK32A); 1000 nM; read-out: Percent Control
T21 construct: purchased Eurofins DiscoverX

kinome (kinase panel) [22] = target: T22, kinome (kinase panel) (Homo sapiens, UniProt Q05655); details: PRKCD; 1000 nM; read-out: Percent Control
T22 construct: purchased Eurofins DiscoverX

kinome (kinase panel) [23] = target: T23, kinome (kinase panel) (Homo sapiens, UniProt Q8NG66); details: NEK11; 1000 nM; read-out: Percent Control
T23 construct: purchased Eurofins DiscoverX

kinome (kinase panel) [24] = target: T24, kinome (kinase panel) (Homo sapiens, UniProt Q02156); details: PRKCE; 1000 nM; read-out: Percent Control
T24 construct: purchased Eurofins DiscoverX

kinome (kinase panel) [25] = target: T25, kinome (kinase panel) (Homo sapiens, UniProt P42336); details: PIK3CA; 1000 nM; read-out: Percent Control
T25 construct: purchased Eurofins DiscoverX

kinome (kinase panel) [26] = target: T26, kinome (kinase panel) (Homo sapiens, UniProt P00519, F317I)
T26 construct: purchased Eurofins DiscoverX

kinome (kinase panel) [27] = target: T27, kinome (kinase panel) (Homo sapiens, UniProt P07333); details: 1000 nM, read-out: Percent Control
T27 construct: purchased Eurofins DiscoverX

kinome (kinase panel) [28] = target: T28, kinome (kinase panel) (Homo sapiens, UniProt Q9UHD2); details: TBK1; 1000 nM; read-out: Percent Control
T28 construct: purchased Eurofins DiscoverX

kinome (kinase panel) [29] = target: T29, kinome (kinase panel) (Homo sapiens, UniProt P08922); details: ROS1; 1000 nM; read-out: Percent Control
T29 construct: purchased Eurofins DiscoverX

kinome (kinase panel) [30] = target: T30, kinome (kinase panel) (Homo sapiens, UniProt Q14164); details: IKK-epsilon (Entrez IKBKE); 1000 nM; read-out: Percent Control
T30 construct: purchased Eurofins DiscoverX

kinome (kinase panel) [31] = target: T31, kinome (kinase panel) (Homo sapiens, UniProt P23443); details: S6K1 (RPS6KB1); 1000 nM; read-out: Percent Control
T31 construct: purchased Eurofins DiscoverX

kinome (kinase panel) [32] = target: T32, kinome (kinase panel) (Homo sapiens, UniProt P08581, Y1235D); details: […]; 1000 nM; read-out: Percent Control
T32 construct: purchased Eurofins DiscoverX

T27 sequence (P07333 20-972): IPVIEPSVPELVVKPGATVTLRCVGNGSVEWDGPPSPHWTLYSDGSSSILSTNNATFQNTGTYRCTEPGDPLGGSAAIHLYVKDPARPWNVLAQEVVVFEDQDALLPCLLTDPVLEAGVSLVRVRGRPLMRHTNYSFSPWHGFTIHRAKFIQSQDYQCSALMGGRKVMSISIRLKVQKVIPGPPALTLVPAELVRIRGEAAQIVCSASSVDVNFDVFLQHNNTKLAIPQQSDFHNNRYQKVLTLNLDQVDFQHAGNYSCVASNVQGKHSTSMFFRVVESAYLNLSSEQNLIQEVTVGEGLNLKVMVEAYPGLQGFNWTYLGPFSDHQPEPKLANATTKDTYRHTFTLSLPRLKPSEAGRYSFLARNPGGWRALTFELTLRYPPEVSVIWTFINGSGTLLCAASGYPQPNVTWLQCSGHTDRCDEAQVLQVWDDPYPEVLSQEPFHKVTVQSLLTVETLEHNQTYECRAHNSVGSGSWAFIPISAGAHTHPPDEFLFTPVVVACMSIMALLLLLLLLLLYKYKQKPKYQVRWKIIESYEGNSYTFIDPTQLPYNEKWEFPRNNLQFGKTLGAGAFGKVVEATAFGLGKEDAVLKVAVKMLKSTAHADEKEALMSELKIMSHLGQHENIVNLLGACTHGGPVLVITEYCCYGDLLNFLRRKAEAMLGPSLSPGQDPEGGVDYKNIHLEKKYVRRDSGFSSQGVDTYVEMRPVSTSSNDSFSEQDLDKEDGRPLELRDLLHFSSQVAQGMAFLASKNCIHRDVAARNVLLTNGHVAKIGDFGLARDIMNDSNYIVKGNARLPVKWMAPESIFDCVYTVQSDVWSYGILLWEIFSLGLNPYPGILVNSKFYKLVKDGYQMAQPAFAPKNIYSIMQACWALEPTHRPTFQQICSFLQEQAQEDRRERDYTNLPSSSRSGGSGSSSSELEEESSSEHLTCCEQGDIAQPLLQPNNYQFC
T26 sequence (P00519 whole entry F317I): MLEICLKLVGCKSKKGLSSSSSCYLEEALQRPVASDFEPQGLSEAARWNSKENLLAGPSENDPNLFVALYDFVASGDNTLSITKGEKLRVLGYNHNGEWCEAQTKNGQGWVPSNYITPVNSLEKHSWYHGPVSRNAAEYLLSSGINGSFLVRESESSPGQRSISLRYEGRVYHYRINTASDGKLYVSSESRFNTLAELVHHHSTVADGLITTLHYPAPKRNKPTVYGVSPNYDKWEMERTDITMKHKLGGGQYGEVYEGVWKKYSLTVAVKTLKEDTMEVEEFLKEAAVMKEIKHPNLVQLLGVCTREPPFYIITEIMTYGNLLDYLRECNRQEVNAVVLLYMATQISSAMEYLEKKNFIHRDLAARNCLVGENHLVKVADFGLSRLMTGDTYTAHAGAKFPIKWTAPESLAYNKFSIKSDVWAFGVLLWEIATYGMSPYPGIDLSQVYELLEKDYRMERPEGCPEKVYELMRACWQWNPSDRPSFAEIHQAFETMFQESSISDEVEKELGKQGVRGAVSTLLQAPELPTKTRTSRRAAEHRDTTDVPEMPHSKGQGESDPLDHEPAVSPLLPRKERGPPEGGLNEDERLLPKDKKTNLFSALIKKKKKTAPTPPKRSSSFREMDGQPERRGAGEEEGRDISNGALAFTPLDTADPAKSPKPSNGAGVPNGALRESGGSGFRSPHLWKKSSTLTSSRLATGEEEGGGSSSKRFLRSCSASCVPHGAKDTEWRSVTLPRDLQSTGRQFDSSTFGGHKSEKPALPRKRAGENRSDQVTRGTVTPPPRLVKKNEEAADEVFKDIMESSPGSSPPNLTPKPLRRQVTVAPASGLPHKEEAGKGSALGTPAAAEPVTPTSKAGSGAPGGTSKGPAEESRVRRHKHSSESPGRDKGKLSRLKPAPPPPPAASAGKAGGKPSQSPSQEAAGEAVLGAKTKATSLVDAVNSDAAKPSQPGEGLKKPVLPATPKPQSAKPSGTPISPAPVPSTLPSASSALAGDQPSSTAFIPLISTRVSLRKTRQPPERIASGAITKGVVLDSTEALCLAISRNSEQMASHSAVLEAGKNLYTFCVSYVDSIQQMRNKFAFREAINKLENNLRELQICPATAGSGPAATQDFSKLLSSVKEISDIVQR
T17 sequence (Q96J92 whole entry): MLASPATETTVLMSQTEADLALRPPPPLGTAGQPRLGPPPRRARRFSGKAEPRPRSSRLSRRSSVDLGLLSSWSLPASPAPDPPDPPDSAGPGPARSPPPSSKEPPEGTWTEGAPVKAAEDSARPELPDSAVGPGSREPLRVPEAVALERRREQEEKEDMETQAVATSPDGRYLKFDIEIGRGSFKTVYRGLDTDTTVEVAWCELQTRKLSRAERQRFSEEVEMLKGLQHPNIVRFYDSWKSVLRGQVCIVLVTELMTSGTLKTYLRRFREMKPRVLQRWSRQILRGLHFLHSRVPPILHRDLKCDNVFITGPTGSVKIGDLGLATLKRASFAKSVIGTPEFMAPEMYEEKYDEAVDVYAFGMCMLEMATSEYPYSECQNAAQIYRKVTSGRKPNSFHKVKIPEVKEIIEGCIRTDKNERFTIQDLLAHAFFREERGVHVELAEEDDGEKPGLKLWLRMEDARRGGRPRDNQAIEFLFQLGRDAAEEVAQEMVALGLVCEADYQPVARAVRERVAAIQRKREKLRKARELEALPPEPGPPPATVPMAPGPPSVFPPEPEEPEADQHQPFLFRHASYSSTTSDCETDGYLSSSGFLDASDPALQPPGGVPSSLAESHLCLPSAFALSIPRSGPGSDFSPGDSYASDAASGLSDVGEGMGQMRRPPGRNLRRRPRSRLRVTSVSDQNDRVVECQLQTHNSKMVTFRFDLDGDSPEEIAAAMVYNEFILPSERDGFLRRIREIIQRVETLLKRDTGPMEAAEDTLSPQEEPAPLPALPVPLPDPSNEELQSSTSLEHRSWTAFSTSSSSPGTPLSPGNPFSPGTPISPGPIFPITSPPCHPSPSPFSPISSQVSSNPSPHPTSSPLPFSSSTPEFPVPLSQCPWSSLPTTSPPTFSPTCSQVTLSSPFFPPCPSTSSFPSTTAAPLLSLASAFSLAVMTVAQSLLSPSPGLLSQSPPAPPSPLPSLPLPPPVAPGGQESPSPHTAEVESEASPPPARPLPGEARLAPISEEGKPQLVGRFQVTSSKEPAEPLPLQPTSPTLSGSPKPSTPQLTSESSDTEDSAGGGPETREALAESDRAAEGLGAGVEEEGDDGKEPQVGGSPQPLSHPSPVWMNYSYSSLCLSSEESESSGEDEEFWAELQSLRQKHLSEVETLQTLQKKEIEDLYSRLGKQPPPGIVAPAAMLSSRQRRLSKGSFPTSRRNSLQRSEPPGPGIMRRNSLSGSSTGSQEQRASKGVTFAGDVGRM
T2 sequence (Q8TBX8 whole entry): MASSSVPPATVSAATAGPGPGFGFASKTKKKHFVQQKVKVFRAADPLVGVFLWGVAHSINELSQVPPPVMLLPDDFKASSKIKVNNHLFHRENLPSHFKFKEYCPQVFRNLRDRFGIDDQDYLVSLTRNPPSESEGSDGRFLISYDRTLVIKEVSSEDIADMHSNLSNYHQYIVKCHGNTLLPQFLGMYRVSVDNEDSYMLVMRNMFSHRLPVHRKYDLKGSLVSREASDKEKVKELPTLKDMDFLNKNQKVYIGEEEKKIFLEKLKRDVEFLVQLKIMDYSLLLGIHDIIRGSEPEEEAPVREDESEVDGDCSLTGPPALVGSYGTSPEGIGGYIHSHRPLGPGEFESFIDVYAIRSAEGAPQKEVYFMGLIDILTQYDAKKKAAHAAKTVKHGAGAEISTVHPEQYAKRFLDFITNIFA
T31 sequence (P23443 whole entry): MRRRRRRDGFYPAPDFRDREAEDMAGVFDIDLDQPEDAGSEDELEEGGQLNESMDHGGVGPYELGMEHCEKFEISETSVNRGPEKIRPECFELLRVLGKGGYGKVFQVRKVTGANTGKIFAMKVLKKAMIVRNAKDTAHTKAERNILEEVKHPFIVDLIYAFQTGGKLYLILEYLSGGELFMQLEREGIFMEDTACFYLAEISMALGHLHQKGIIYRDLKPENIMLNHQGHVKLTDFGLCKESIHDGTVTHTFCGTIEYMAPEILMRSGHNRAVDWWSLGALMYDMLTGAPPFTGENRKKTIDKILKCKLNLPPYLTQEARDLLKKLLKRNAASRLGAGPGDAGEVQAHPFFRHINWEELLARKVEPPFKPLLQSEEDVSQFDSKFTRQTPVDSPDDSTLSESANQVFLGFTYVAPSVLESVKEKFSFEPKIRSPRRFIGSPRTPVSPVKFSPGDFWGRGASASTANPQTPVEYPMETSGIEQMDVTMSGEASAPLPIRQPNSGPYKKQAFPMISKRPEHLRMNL
T24 sequence (Q02156 whole entry): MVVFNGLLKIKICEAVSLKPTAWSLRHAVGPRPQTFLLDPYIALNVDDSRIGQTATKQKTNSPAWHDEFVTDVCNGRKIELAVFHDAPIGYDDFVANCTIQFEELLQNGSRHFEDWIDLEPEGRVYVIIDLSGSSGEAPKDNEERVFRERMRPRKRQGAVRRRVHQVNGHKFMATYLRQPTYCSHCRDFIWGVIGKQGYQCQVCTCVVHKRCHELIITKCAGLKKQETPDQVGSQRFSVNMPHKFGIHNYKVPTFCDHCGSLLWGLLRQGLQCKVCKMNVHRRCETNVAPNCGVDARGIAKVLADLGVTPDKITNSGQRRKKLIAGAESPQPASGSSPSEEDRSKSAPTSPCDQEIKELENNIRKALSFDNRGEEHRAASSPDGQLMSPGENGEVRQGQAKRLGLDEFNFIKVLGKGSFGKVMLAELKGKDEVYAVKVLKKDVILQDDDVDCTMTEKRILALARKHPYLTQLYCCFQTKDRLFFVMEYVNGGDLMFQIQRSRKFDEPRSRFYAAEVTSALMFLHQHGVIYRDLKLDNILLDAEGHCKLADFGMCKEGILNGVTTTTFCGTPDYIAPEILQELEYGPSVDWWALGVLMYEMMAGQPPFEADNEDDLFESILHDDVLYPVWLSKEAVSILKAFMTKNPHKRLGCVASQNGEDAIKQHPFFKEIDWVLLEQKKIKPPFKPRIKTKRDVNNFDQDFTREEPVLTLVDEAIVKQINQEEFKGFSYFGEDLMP

CN(C)C(=O)c1cc2cnc(Nc3ccc(-c4csc5c(=O)cc(N6CCOCC6)oc45)cc3)nc2n1C1CCCC1 [SRX3177]
remaining binding at 1 µM (kinome (kinase panel) [1]): 47% | remaining binding at 1 µM (kinome (kinase panel) [2]): 1.8% | remaining binding at 1 µM (kinome (kinase panel) [3]): 90% | remaining binding at 1 µM (kinome (kinase panel) [4]): 76% | remaining binding at 1 µM (kinome (kinase panel) [5]): 40% | remaining binding at 1 µM (kinome (kinase panel) [6]): 55% | remaining binding at 1 µM (kinome (kinase panel) [7]): 46% | remaining binding at 1 µM (kinome (kinase panel) [8]): 48% | remaining binding at 1 µM (kinome (kinase panel) [9]): 100% | remaining binding at 1 µM (kinome (kinase panel) [10]): 98% | remaining binding at 1 µM (kinome (kinase panel) [11]): 55% | remaining binding at 1 µM (kinome (kinase panel) [12]): 100% | remaining binding at 1 µM (kinome (kinase panel) [13]): 79% | remaining binding at 1 µM (kinome (kinase panel) [14]): 81% | remaining binding at 1 µM (kinome (kinase panel) [15]): 87% | remaining binding at 1 µM (kinome (kinase panel) [16]): 80% | remaining binding at 1 µM (kinome (kinase panel) [17]): 90% | remaining binding at 1 µM (kinome (kinase panel) [18]): 87% | remaining binding at 1 µM (kinome (kinase panel) [19]): 100% | remaining binding at 1 µM (kinome (kinase panel) [20]): 75% | remaining binding at 1 µM (kinome (kinase panel) [21]): 94% | remaining binding at 1 µM (kinome (kinase panel) [22]): 86% | remaining binding at 1 µM (kinome (kinase panel) [23]): 99% | remaining binding at 1 µM (kinome (kinase panel) [24]): 93% | remaining binding at 1 µM (kinome (kinase panel) [25]): 72% | Percent Control (kinome (kinase panel) [26]): 96 | remaining binding at 1 µM (kinome (kinase panel) [26]; read-out: Percent Control): 81% | remaining binding at 1 µM (kinome (kinase panel) [27]; CSF1R-autoinhibited): 60% | remaining binding at 1 µM (kinome (kinase panel) [27]; CSF1R): 100% | remaining binding at 1 µM (kinome (kinase panel) [28]): 16% | remaining binding at 1 µM (kinome (kinase panel) [29]): 96% | remaining binding at 1 µM (kinome (kinase panel) [30]): 51% | remaining binding at 1 µM (kinome (kinase panel) [31]): 95% | remaining binding at 1 µM (kinome (kinase panel) [32]): 100%
